In US7846968B2, “Methods for QT interval control” (Janssen Pharmaceutica, N.V., priority 2005, dated 2010):

How the values were obtained:
healthy adults = assay: Double-blind, randomized, 3-way crossover, placebo- and active-control study of cardiovascular (QT/QTc) effects; assay type: in vivo, human; details: for Mean change from pretreatment baseline in QTc interval (mean ΔQTc), Bazett correction / Mean change from pretreatment baseline in QTc interval (mean ΔQTc), Individual Correction Method / Mean change from pretreatment baseline in QTc interval (mean ΔQTc), Fridericia correction: moxifloxacin 400 mg single oral dose; for Mean change from pretreatment baseline in QTc interval (mean ΔQTc), Fridericia correction: time-matched baseline Day 0; for Maximum decrease in QTc-F compared to baseline: individual subjects; for Reduction of the mean QTc-F interval compared to pretreatment baseline (Day 0): stated as reduction; for Maximum decrease in QTc-F compared to baseline / Number of subjects with QTc shortening between 30 and 60 ms compared to baseline: QTc-F
Experimental: (§1) The study of the cardiovascular effects of a carbamate compound of the present invention, shown as Formula 7 above, and hereafter referred to as “the test compound” was a single-center, double-blind, randomized, 3-way crossover, placebo- and active-control study. The test compound was studied at a dose of 1,500 mg/day (750 mg twice daily) both after acute dosing ([…], Day 1) and at steady state (Day 7). The study also evaluated the delayed post-treatment effects on Days 8-10. Moxifloxacin (400 mg, single oral dose) was used as an active control for the evaluation of QT/QTc on both Days 1 and 7.
(§2) Of the 38 subjects enrolled, 35 completed all 3 treatment conditions (placebo, moxifloxacin, test compound). Two subjects withdrew electively after receiving the first 3 days of the last treatment period (1 in moxifloxacin and 1 in test compound), and the last one withdrew because of an adverse event (respiratory tract infection) after the first treatment period (placebo), and before receiving any other treatment. Thus, all 38 subjects completed placebo treatment, 36 subjects completed the test compound treatment (and an additional subject provided data for Days 0 and 1 on test compound), and 36 completed moxifloxacin treatment (and 1 provided data for Days 0 and 1 on moxifloxacin). All 38 subjects were included in the safety evaluation; all collected drug level measurements and all available ECG recordings were included in data analyses.
The study population consisted of 38 healthy adults (20 men and 18 women), age 18 to 50 years, with normal 12-lead ECG (normal sinus rhythm, QTc and QRS intervals) and no history of cardiovascular disease. Of the 38 subjects enrolled, 35 completed all 3 treatment conditions (placebo, moxifloxacin, test compound). Two subjects withdrew electively after receiving the first 3 days of the last treatment period (1 in moxifloxacin and 1 in test compound), and the last one withdrew because of an adverse event (respiratory tract infection) after the first treatment period (placebo), and before receiving any.
as §2, with “The study population consisted of 38 healthy adults (20 men and 18 women), age 18 to 50 years, with normal 12-lead ECG (normal sinus rhythm, QTc and QRS intervals) and no history of cardiovascular disease. Of” for “Of”, “completed” for “completed the”
During each treatment period, 11 12-lead ECGs were collected at the same time of the day on Day 0 (baseline), Day 1 (initial treatment), and Day 7 (steady-state treatment); 4 additional ECGs were collected at exactly 24, 36, 48, and 72 hours after the last dose of Day 7 (post-treatment).
All ECG recordings of the same subject were read by the same blinded cardiologist. The QT intervals, from the onset of the QRS complex to the end of the T wave, were determined by the method of overlapping medians. The key QTc variables used in the assessment are listed below. The change from baseline (ΔQTc) was calculated using time-matched values. The following parameters were calculated for each subject and treatment by averaging over all time points during the 12-hour dosing interval. […]

[1] = Pharmacokinetics / drug level measurements in the crossover QT study; assay type: in vivo, human
Experimental: as §1
as §2, with “All 38 subjects were included in the safety evaluation; all collected drug level measurements and all available ECG recordings were included in data analyses.” left out

[2] = Day 1 (acute dosing), test compound 250 mg
[3] = Day 1 (acute dosing), test compound 250 mg, averaged over 12-hour dosing interval
[4] = Day 7 (steady state), test compound 1,500 mg/day (750 mg twice daily)

Row | Structure (SMILES) | Gender effect with regard to QTc reduction (healthy adults; 20 men and 18 women) | Mean change from pretreatment baseline in QTc interval (mean ΔQTc), Bazett correction (healthy adults; [2]) | Mean change from pretreatment baseline in QTc interval (mean ΔQTc), Individual Correction Method (healthy adults; [2]) | Mean change from pretreatment baseline in QTc interval (mean ΔQTc), Fridericia correction (healthy adults; [3]) | Mean change from pretreatment baseline in QTc interval (mean ΔQTc), Bazett correction (healthy adults; [4]) | Mean change from pretreatment baseline in QTc interval (mean ΔQTc), Individual Correction Method (healthy adults; [4]) | Mean change from pretreatment baseline in QTc interval (mean ΔQTc), Fridericia correction (healthy adults; [4]) | Delayed post-treatment effect on QT/QTc intervals (healthy adults; Days 8-10) | Maximum decrease in QTc-F compared to baseline (healthy adults) [ms] | Reduction of the mean QTc-F interval compared to pretreatment baseline (Day 0) (healthy adults; after initial treatment (Day 1)) [ms] | Reduction of the mean QTc-F interval compared to pretreatment baseline (Day 0) (healthy adults; at steady state (Day 7)) [ms] | Lowest QTc-F value (healthy adults; observed in 3 subjects (2 test compound, 1 placebo)) [ms] | Time after the last dose of Day 7 by which the QTc shortening effect disappeared (healthy adults; post-treatment ECGs at 24, 36, 48, 72 hours) [h] | Number of subjects with QTc-F slightly below 350 ms (healthy adults; steady state (Day 7)) [subjects] | Number of subjects with QTc shortening between 30 and 60 ms compared to baseline (healthy adults; steady state (Day 7)) [subjects] | Pharmacokinetics (linearity / dose proportionality) ([1]; after single- and multiple-dose administration) | Systemic exposure between the 2 single doses ([1]; 400 mg doses on Day 1 and Day 7)
1 | NC(=O)OC[C@@H](O)c1ccccc1Cl [test compound] | no gender effect | -3.2 ms | -3.7 ms | -3.1 ms | -7.4 ms | -12.1 ms | -11.2 ms | no apparent delayed post-treatment effect | 47 | 3.1 | 11.2 | 348 | ≤ 24 | 2 | 14 | linear and proportional | –
2 | COc1c(N2C[C@@H]3CCCN[C@@H]3C2)c(F)cc2c(=O)c(C(=O)O)cn(C3CC3)c12 [Moxifloxacin, reference compound] | – | +6.5 ms | +6.6 ms | +6.7 ms | +3.2 ms | +0.8 ms | +1.6 ms | – | 45 | – | – | – | – | – | 5 | – | consistent
